Patent US11384065B2, “Heterocyclic compound as CSF-1R inhibitor and use thereof” (MEDSHINE DISCOVERY INC., priority 2018, dated 2022)

Key:
[1] = target: CSF-1R (Homo sapiens (Human), UniProt P07333); experiment: In vitro inhibitory activity on CSF-1R kinase (33P-ATP filter-binding, Reaction Biology Corporation); format: biochemical; details: CSF-1R 2.5 nM, filter-binding method
Experimental: Experimental Example 1: In Vitro Inhibitory Activity of the Compounds of the Present Invention on CSF-1R in Terms of Enzymology The compounds of the present invention for experiments were made in house, and their structural formulas were shown in the preparation examples of each compound. The experimental tests were conducted at Reaction Biology Corporation in the United States, and the experimental results were provided by the company. Experimental Reagents: Necessary reaction buffer: 20 mM hydroxyethylpiperazine ethanesulfonic acid (pH 7.5), 10 mM magnesium chloride, 1 mM EGTA, 0.02% Brij35, 0.02 mg/mL bovine serum albumin, 0.1 mM Na3VO4, 2 mM DTT, 1% DMSO. The necessary cofactors were added separately to the CSF-1R kinase reaction. Enzyme: the concentration of CSF-1R was 2.5 nM Treatment with the Compounds: The compound to be tested was formulated with 100% DMSO into a solution with a specific concentration, and serial dilution was performed with DMSO through the intelligent pipetting assistant Integra Viaflo Assist. Experimental Procedure: […] All necessary cofactors were added to the above reaction buffer; CSF-1R kinase was added to the above matrix solution and shaken gently; Using acoustic technology (Echo550; nanoliter range), a solution of the compound in DMSO was added to the above kinase reaction mixture, and the reaction solution was incubated at room temperature for 20 minutes; ^33P-ATP (specific activity, 10 μCi/μl) was added to the above kinase reaction mixture to initiate the reaction; The reaction solution was incubated at room temperature for 2 hours; The kinase activity was detected by the filter-binding method; The kinase activity was the ratio of the remaining kinase in the test sample to the vehicle (DMSO) group. IC50 values and profiles were obtained using Prism (GraphPad software).

[2] = Pharmacokinetic study after intravenous injection and oral administration (plasma, LC-MS/MS); format: in vivo, rats; details: for AUC(0-t) / C0 / Vd / clearance / half-life / Cmax: male, SD, rat, plasma
Text: Example 2 Pharmacokinetic Study on Mice and Rats (PK)
The purpose of this experiment was to study the pharmacokinetics of the test article in the plasma of male C57BL/6J mice and SD rats after intravenous injection and oral administration.
The animals were randomly divided into two groups with 2 males in each group. The compounds were formulated into prescribed preparations. Preparations for intravenous injection were clear solutions, and oral preparations could be clear or homogeneous suspensions.
Whole blood samples were collected from the jugular vein puncture or saphenous vein of the animals 5 minutes, 15 minutes, 30 minutes, 1 hour, 2 hours, 4 hours, 6 hours, and 8 hours after administration. The whole blood sample was added to the centrifuge tube containing anticoagulant, and centrifuged at 3000 g for 15 minutes at 4° C. The supernatant of plasma was taken, frozen quickly on dry ice, and then stored in a −70° C.±10° C. refrigerator until LC-MS/MS analysis.
WinNonlin™ Version 6.3.0 (Pharsight, Mountain View, Calif.) pharmacokinetic software was used to process the plasma drug concentration data of the compounds with a non-compartmental model. The peak concentration (Cmax), peak time (Tmax) and quantifiable end time were obtained directly from the blood drug concentration-time profile.
The following pharmacokinetic parameters were calculated using the log-linear trapezoid method: Plasma clearance rate (CL), volume of distribution (Vd), elimination phase half-life (T1/2), average residence time of drug in the body from 0 to the end time point (MRT0-last), average residence time of the drug in the body from 0 to infinite time (MRT0-inf), area under the time-plasma concentration curve from 0 to the end time point (AUC0-last), area under the time-plasma concentration curve from 0 to infinite time (AUC0-inf) and bioavailability (F), C0 was the initial concentration.

CSF-1R, sequence (P07333 20-972): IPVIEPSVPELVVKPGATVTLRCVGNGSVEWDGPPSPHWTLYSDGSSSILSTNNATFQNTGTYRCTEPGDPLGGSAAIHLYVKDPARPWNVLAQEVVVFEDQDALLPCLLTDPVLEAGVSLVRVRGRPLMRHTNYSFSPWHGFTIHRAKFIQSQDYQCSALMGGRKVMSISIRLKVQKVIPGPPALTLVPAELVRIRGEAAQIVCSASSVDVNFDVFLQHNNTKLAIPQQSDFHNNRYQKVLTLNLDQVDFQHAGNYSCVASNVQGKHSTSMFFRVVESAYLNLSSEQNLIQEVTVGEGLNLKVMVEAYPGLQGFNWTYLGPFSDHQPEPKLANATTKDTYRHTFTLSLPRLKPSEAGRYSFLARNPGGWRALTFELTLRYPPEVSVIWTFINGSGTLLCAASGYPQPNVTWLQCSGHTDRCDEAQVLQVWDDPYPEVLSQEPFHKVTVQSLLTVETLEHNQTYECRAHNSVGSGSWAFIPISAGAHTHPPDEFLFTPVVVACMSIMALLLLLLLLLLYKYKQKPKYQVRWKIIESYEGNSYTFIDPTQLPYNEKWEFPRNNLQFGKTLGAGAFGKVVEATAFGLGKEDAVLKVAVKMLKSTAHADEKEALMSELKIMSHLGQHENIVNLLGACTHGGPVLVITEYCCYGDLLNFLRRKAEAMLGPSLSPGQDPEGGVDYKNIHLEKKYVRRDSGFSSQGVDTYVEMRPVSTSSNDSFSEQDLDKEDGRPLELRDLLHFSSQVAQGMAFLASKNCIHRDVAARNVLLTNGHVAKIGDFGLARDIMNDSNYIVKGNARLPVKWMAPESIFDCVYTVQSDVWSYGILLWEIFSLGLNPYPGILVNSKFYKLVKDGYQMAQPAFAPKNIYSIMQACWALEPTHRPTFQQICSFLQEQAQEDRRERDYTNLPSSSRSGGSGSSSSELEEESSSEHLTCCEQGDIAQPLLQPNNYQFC

Row | Compound | IC50 [1] [nM] | also measured
1 | Cc1cc(NCc2ccc(C(F)(F)F)nc2)ncc1-c1ccc(N(C)C)c2c1CNC2=O [Compound 1] | 3.06 | –
2 | Cc1cc(NCc2ccc(C(F)(F)F)nc2)ncc1-c1ccc(N)c2c1CNC2=O [Compound 2] | 1.55 | –
3 | CC(=O)Nc1ccc(-c2cnc(NCc3ccc(C(F)(F)F)nc3)cc2C)c2c1C(=O)NC2 [Compound 3] | 24.5 | –
4 | CNc1ccc(-c2cnc(NCc3ccc(C(F)(F)F)nc3)cc2C)c2c1C(=O)NC2 [Compound 4] | 1.27 | –
5 | CNc1ccc(-c2cnc(Nc3ccc(OC4CC4)nc3)cc2C)c2c1C(=O)NC2 [Compound 5] | 1.68 | –
6 | CNc1ccc(-c2cnc(Nc3ccc(C4(C#N)CC4)nc3)cc2C)c2c1C(=O)NC2 [Compound 6] | 5.01 | –
7 | CCOc1ccc(Nc2cc(C)c(-c3ccc(NC)c4c3CNC4=O)cn2)cn1 [Compound 7] | 1.87 | –
8 | CNc1ccc(-c2cnc(Nc3ccc(OC(F)F)nc3)cc2C)c2c1C(=O)NC2 [Compound 8] | 4.98 | –
9 | CNc1ccc(-c2cnc(Nc3ccc(N(C)C)nc3)cc2C)c2c1C(=O)NC2 [Compound 9] | 1.41 | –
10 | CNc1ccc(-c2cnc(Nc3cnc(C4CC4)nc3)cc2C)c2c1C(=O)NC2 [Compound 10] | 2.61 | F ([2]; PO (10 mpk)): 106%; AUC(0-t) ([2]; 1 mg/kg, IV (1 mpk)): 18.7 µM·h; C0 ([2]; 1 mg/kg, IV (1 mpk)): 6.29 µM; Vd ([2]; 1 mg/kg, IV (1 mpk)): 0.495 L/kg; clearance ([2]; 1 mg/kg, IV (1 mpk)): 2.31 mL/min/kg; half-life ([2]; 1 mg/kg, IV (1 mpk)): 2.53 h; AUC(0-t) ([2]; 10 mg/kg, PO (10 mpk)): 198 µM·h; Cmax ([2]; 10 mg/kg, PO (10 mpk)): 33 µM
11 | CNc1ccc(-c2cnc(Nc3ccc(C4CC4)nn3)cc2C)c2c1C(=O)NC2 [Compound 11] | 4.71 | –
12 | CNc1ccc(-c2cnc(Nc3cnc(C4CC4)cn3)cc2C)c2c1C(=O)NC2 [Compound 12] | 1.89 | –
13 | CNc1ccc(-c2cnc(Nc3ncc(C4CC4)cn3)cc2C)c2c1C(=O)NC2 [Compound 13] | 3.78 | –
14 | COc1ccc(-c2ccc(NC(=O)Nc3cccc(C)c3)cc2)c2c1C(=O)NC2 [Control compound, reference compound] | – | F ([2]; PO (10 mpk)): 3.92%; AUC(0-t) ([2]; 1 mg/kg, IV (1 mpk)): 0.918 µM·h; C0 ([2]; 1 mg/kg, IV (1 mpk)): 3.72 µM; Vd ([2]; 1 mg/kg, IV (1 mpk)): 1.48 L/kg; clearance ([2]; 1 mg/kg, IV (1 mpk)): 46.7 mL/min/kg; half-life ([2]; 1 mg/kg, IV (1 mpk)): 0.92 h; AUC(0-t) ([2]; 10 mg/kg, PO (10 mpk)): 0.333 µM·h; Cmax ([2]; 10 mg/kg, PO (10 mpk)): 0.104 µM

The next lines start with results.

Row | IC50 [1] [nM] | Compound | also measured
15 | 2.5 | CNc1ccc(-c2cnc(Nc3ccc(C4CC4)cn3)cc2C)c2c1C(=O)NC2 [Compound 14] | –
16 | 0.82 | CNc1ccc(-c2cnc(Nc3ccc(C4CC4)nc3)cc2C)c2c1C(=O)NC2 [Compound 15] | –
17 | 2.49 | CNc1ccc(-c2cnc(Nc3cnc(OC4CC4)nc3)cc2C)c2c1C(=O)NC2 [Compound 16] | –
18 | 4.15 | CNc1ccc(-c2cnc(Nc3ccc(OC4CC4)cn3)cc2C)c2c1C(=O)NC2 [Compound 17] | –
19 | 3.43 | CNc1ccc(-c2cnc(Nc3ccc(OC4CC4)nn3)cc2C)c2c1C(=O)NC2 [Compound 18] | –
20 | 2.55 | CNc1ccc(-c2cnc(Nc3cnc(OC4CC4)cn3)cc2C)c2c1C(=O)NC2 [Compound 19] | –
21 | 12.1 | CNc1ccc(-c2cnc(Nc3ccn(C4CC4)c(=O)c3)cc2C)c2c1C(=O)NC2 [Compound 20] | –
